Assay results published in patent publication US20230085307A1, “PYRIDAZINONE COMPOUND AND HERBICIDE” (NISSAN CHEMICAL CORPORATION, priority 2019, published 2023).

System: redroot pigweed
Experiment: Test Example 5: herbicidal effect by foliage application, plastic box (Table 20, symbol N)
Assay type: in vivo, redroot pigweed (Amaranthus retroflexus)
Details: foliage application, AAH 320 g/ha, three weeks after application
Outline: (§1)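 Post-emergence foliar test in sterilized diluvial soil. Compound applied as water-diluted emulsion at a predetermined rate to 14-day-old plants; evaluation at three weeks.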

SMILES	N: redroot pigweed, herbicidal effect
CCCC(=O)Oc1c(OC)nn(C)c(=O)c1-c1c(-c2ccc(C#N)cc2)sc2ccccc12 [1-171]	5 (Herbicidal rate of 90% or more (almost completely withered))

System: chickweed
Experiment: Test Example 5: herbicidal effect by foliage application, plastic box (Table 20, symbol P)
Assay type: in vivo, common chickweed (Stellaria media)
Details: foliage application, AAH 320 g/ha, three weeks after application
Outline: as §1

SMILES	P: chickweed, herbicidal effect
CCCC(=O)Oc1c(OC)nn(C)c(=O)c1-c1c(-c2ccc(C#N)cc2)sc2ccccc12 [1-171]	5 (Herbicidal rate of 90% or more (almost completely withered))

System: chickweed
Experiment: Test Example 4: herbicidal effect by soil treatment (Table 19, symbol P)
Assay type: in vivo, common chickweed (Stellaria media)
Details: AAH 320 g/ha
Outline: (§2)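 Emulsion of test compound, water-diluted to predetermined amount, sprayed on soil after sowing (seed depth ~1.5 cm, sterilized diluvial soil). Greenhouse, 25–30° C. Effect graded at three weeks post-spray.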

SMILES	P: chickweed, herbicidal effect rating
CCCC(=O)Oc1c(OC)nn(C)c(=O)c1-c1c(-c2ccc(C#N)cc2)sc2ccccc12 [1-171]	5 (Herbicidal rate of 90% or more (almost completely withered))

System: southern crabgrass
Experiment: Test Example 5: herbicidal effect by foliage application, plastic box (Table 20, symbol F)
Assay type: in vivo, southern crabgrass (Digitaria ciliaris)
Details: foliage application, AAH 320 g/ha, three weeks after application
Outline: as §1

SMILES	F: southern crabgrass, herbicidal effect
CCCC(=O)Oc1c(OC)nn(C)c(=O)c1-c1c(-c2ccc(C#N)cc2)sc2ccccc12 [1-171]	0 (Herbicidal rate of 5% or less (almost no effect))

System: blackgrass
Experiment: Test Example 4: herbicidal effect by soil treatment (Table 19, symbol J)
Assay type: in vivo, blackgrass (Alopecurus myosuroides)
Details: AAH 320 g/ha
Outline: as §2

SMILES	J: blackgrass, herbicidal effect rating
CCCC(=O)Oc1c(OC)nn(C)c(=O)c1-c1c(-c2ccc(C#N)cc2)sc2ccccc12 [1-171]	0 (Herbicidal rate of 5% or less (almost no effect))

System: lambsquarters
Experiment: Test Example 5: herbicidal effect by foliage application, plastic box (Table 20, symbol O)
Assay type: in vivo, lambsquarters (Chenopodium album)
Details: foliage application, AAH 320 g/ha, three weeks after application
Outline: as §1

SMILES	O: lambsquarters, herbicidal effect
CCCC(=O)Oc1c(OC)nn(C)c(=O)c1-c1c(-c2ccc(C#N)cc2)sc2ccccc12 [1-171]	4 (Herbicidal rate of 70% or more and less than 90%)

System: windgrass
Experiment: Test Example 5: herbicidal effect by foliage application, plastic box (Table 20, symbol L)
Assay type: in vivo, windgrass (Apera spica-venti)
Details: foliage application, AAH 320 g/ha, three weeks after application
Outline: as §1

SMILES	L: windgrass, herbicidal effect
CCCC(=O)Oc1c(OC)nn(C)c(=O)c1-c1c(-c2ccc(C#N)cc2)sc2ccccc12 [1-171]	0 (Herbicidal rate of 5% or less (almost no effect))

System: lambsquarters
Experiment: Test Example 4: herbicidal effect by soil treatment (Table 19, symbol O)
Assay type: in vivo, lambsquarters (Chenopodium album)
Details: AAH 320 g/ha
Outline: as §2

SMILES	O: lambsquarters, herbicidal effect rating
CCCC(=O)Oc1c(OC)nn(C)c(=O)c1-c1c(-c2ccc(C#N)cc2)sc2ccccc12 [1-171]	3 (Herbicidal rate of 40% or more and less than 70%)

System: green foxtail
Experiment: Test Example 5: herbicidal effect by foliage application, plastic box (Table 20, symbol G)
Assay type: in vivo, green foxtail (Setaria viridis)
Details: foliage application, AAH 320 g/ha, three weeks after application
Outline: as §1

SMILES	G: green foxtail, herbicidal effect
CCCC(=O)Oc1c(OC)nn(C)c(=O)c1-c1c(-c2ccc(C#N)cc2)sc2ccccc12 [1-171]	0 (Herbicidal rate of 5% or less (almost no effect))

System: barnyard grass
Experiment: Test Example 3: herbicidal effect by foliage application, Wagner pot (Table 18, symbol H)
Assay type: in vivo, barnyard grass (Echinochloa crus-galli)
Details: 320 g/ha
Outline: (§3)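 Plants were sown in alluvial soil held under 0.1–0.5 cm standing water and grown 14 days in a greenhouse at 25–30 °C. An emulsifiable formulation, water-diluted to the set dose, was then sprayed onto the foliage, and effects were scored three weeks later using previously defined criteria.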

SMILES	herbicidal effect on H (barnyard grass), rating 0-5
CCCC(=O)Oc1c(OC)nn(C)c(=O)c1-c1c(-c2ccc(C#N)cc2)sc2ccccc12 [1-171]	3 (Herbicidal rate of 40% or more and less than 70%)

System: barnyard grass
Experiment: Test Example 5: herbicidal effect by foliage application, plastic box (Table 20, symbol H)
Assay type: in vivo, barnyard grass (Echinochloa crus-galli)
Details: foliage application, AAH 320 g/ha, three weeks after application
Outline: as §1

SMILES	H: barnyard grass, herbicidal effect
CCCC(=O)Oc1c(OC)nn(C)c(=O)c1-c1c(-c2ccc(C#N)cc2)sc2ccccc12 [1-171]	0 (Herbicidal rate of 5% or less (almost no effect))

System: velvetleaf
Experiment: Test Example 5: herbicidal effect by foliage application, plastic box (Table 20, symbol M)
Assay type: in vivo, velvetleaf (Abutilon theophrasti)
Details: foliage application, AAH 320 g/ha, three weeks after application
Outline: as §1

SMILES	M: velvetleaf, herbicidal effect
CCCC(=O)Oc1c(OC)nn(C)c(=O)c1-c1c(-c2ccc(C#N)cc2)sc2ccccc12 [1-171]	4 (Herbicidal rate of 70% or more and less than 90%)

System: wild oat
Experiment: Test Example 4: herbicidal effect by soil treatment (Table 19, symbol I)
Assay type: in vivo, wild oat (Avena fatua)
Details: AAH 320 g/ha
Outline: as §2

SMILES	I: wild oat, herbicidal effect rating
CCCC(=O)Oc1c(OC)nn(C)c(=O)c1-c1c(-c2ccc(C#N)cc2)sc2ccccc12 [1-171]	0 (Herbicidal rate of 5% or less (almost no effect))

System: Italian ryegrass
Experiment: Test Example 5: herbicidal effect by foliage application, plastic box (Table 20, symbol K)
Assay type: in vivo, Italian ryegrass (Lolium multiflorum)
Details: foliage application, AAH 320 g/ha, three weeks after application
Outline: as §1

SMILES	K: Italian ryegrass, herbicidal effect
CCCC(=O)Oc1c(OC)nn(C)c(=O)c1-c1c(-c2ccc(C#N)cc2)sc2ccccc12 [1-171]	0 (Herbicidal rate of 5% or less (almost no effect))

System: redroot pigweed
Experiment: Test Example 4: herbicidal effect by soil treatment (Table 19, symbol N)
Assay type: in vivo, redroot pigweed (Amaranthus retroflexus)
Details: AAH 320 g/ha
Outline: as §2

SMILES	N: redroot pigweed, herbicidal effect rating
CCCC(=O)Oc1c(OC)nn(C)c(=O)c1-c1c(-c2ccc(C#N)cc2)sc2ccccc12 [1-171]	5 (Herbicidal rate of 90% or more (almost completely withered))

System: velvetleaf
Experiment: Test Example 4: herbicidal effect by soil treatment (Table 19, symbol M)
Assay type: in vivo, velvetleaf (Abutilon theophrasti)
Details: AAH 320 g/ha
Outline: as §2

SMILES	M: velvetleaf, herbicidal effect rating
CCCC(=O)Oc1c(OC)nn(C)c(=O)c1-c1c(-c2ccc(C#N)cc2)sc2ccccc12 [1-171]	0 (Herbicidal rate of 5% or less (almost no effect))

System: barnyard grass
Experiment: Test Example 4: herbicidal effect by soil treatment (Table 19, symbol H)
Assay type: in vivo, barnyard grass (Echinochloa crus-galli)
Details: AAH 320 g/ha
Outline: as §2

SMILES	H: barnyard grass, herbicidal effect rating
CCCC(=O)Oc1c(OC)nn(C)c(=O)c1-c1c(-c2ccc(C#N)cc2)sc2ccccc12 [1-171]	0 (Herbicidal rate of 5% or less (almost no effect))

System: windgrass
Experiment: Test Example 4: herbicidal effect by soil treatment (Table 19, symbol L)
Assay type: in vivo, windgrass (Apera spica-venti)
Details: AAH 320 g/ha
Outline: as §2

SMILES	L: windgrass, herbicidal effect rating
CCCC(=O)Oc1c(OC)nn(C)c(=O)c1-c1c(-c2ccc(C#N)cc2)sc2ccccc12 [1-171]	0 (Herbicidal rate of 5% or less (almost no effect))

System: green foxtail
Experiment: Test Example 4: herbicidal effect by soil treatment (Table 19, symbol G)
Assay type: in vivo, green foxtail (Setaria viridis)
Details: AAH 320 g/ha
Outline: as §2

SMILES	G: green foxtail, herbicidal effect rating
CCCC(=O)Oc1c(OC)nn(C)c(=O)c1-c1c(-c2ccc(C#N)cc2)sc2ccccc12 [1-171]	0 (Herbicidal rate of 5% or less (almost no effect))

System: persian speedwell
Experiment: Test Example 4: herbicidal effect by soil treatment (Table 19, symbol R)
Assay type: in vivo, Persian speedwell (Veronica persica)
Details: AAH 320 g/ha
Outline: as §2

SMILES	R: persian speedwell, herbicidal effect rating
CCCC(=O)Oc1c(OC)nn(C)c(=O)c1-c1c(-c2ccc(C#N)cc2)sc2ccccc12 [1-171]	4 (Herbicidal rate of 70% or more and less than 90%)

System: persian speedwell
Experiment: Test Example 5: herbicidal effect by foliage application, plastic box (Table 20, symbol R)
Assay type: in vivo, Persian speedwell (Veronica persica)
Details: foliage application, AAH 320 g/ha, three weeks after application
Outline: as §1

SMILES	R: persian speedwell, herbicidal effect
CCCC(=O)Oc1c(OC)nn(C)c(=O)c1-c1c(-c2ccc(C#N)cc2)sc2ccccc12 [1-171]	4 (Herbicidal rate of 70% or more and less than 90%)

System: rice flat sedge
Experiment: Test Example 3: herbicidal effect by foliage application, Wagner pot (Table 18, symbol E)
Assay type: in vivo, rice flat sedge (Cyperus iria)
Details: 320 g/ha
Outline: as §3

SMILES	herbicidal effect on E (rice flat sedge), rating 0-5
CCCC(=O)Oc1c(OC)nn(C)c(=O)c1-c1c(-c2ccc(C#N)cc2)sc2ccccc12 [1-171]	4 (Herbicidal rate of 70% or more and less than 90%)

System: wild oat
Experiment: Test Example 5: herbicidal effect by foliage application, plastic box (Table 20, symbol I)
Assay type: in vivo, wild oat (Avena fatua)
Details: foliage application, AAH 320 g/ha, three weeks after application
Outline: as §1

SMILES	I: wild oat, herbicidal effect
CCCC(=O)Oc1c(OC)nn(C)c(=O)c1-c1c(-c2ccc(C#N)cc2)sc2ccccc12 [1-171]	0 (Herbicidal rate of 5% or less (almost no effect))

System: Chinese sprangletop
Experiment: Test Example 3: herbicidal effect by foliage application, Wagner pot (Table 18, symbol D)
Assay type: in vivo, chinese sprangletop (Leptochloa chinensis)
Details: 320 g/ha
Outline: as §3

SMILES	herbicidal effect on D (Chinese sprangletop), rating 0-5
CCCC(=O)Oc1c(OC)nn(C)c(=O)c1-c1c(-c2ccc(C#N)cc2)sc2ccccc12 [1-171]	0 (Herbicidal rate of 5% or less (almost no effect))

System: Italian ryegrass
Experiment: Test Example 4: herbicidal effect by soil treatment (Table 19, symbol K)
Assay type: in vivo, Italian ryegrass (Lolium multiflorum)
Details: AAH 320 g/ha
Outline: as §2

SMILES	K: Italian ryegrass, herbicidal effect rating
CCCC(=O)Oc1c(OC)nn(C)c(=O)c1-c1c(-c2ccc(C#N)cc2)sc2ccccc12 [1-171]	0 (Herbicidal rate of 5% or less (almost no effect))

System: blackgrass
Experiment: Test Example 5: herbicidal effect by foliage application, plastic box (Table 20, symbol J)
Assay type: in vivo, blackgrass (Alopecurus myosuroides)
Details: foliage application, AAH 320 g/ha, three weeks after application
Outline: as §1

SMILES	J: blackgrass, herbicidal effect
CCCC(=O)Oc1c(OC)nn(C)c(=O)c1-c1c(-c2ccc(C#N)cc2)sc2ccccc12 [1-171]	0 (Herbicidal rate of 5% or less (almost no effect))

System: southern crabgrass
Experiment: Test Example 4: herbicidal effect by soil treatment (Table 19, symbol F)
Assay type: in vivo, southern crabgrass (Digitaria ciliaris)
Details: AAH 320 g/ha
Outline: as §2

SMILES	F: southern crabgrass, herbicidal effect rating
CCCC(=O)Oc1c(OC)nn(C)c(=O)c1-c1c(-c2ccc(C#N)cc2)sc2ccccc12 [1-171]	5 (Herbicidal rate of 90% or more (almost completely withered))
